Experiments:
[1] = tested on: Bartlett pears; assay: Evaluation of sliced Bartlett pears preserved with fresh produce preservative (scores); parameters: key: 1–10 scale, 10 = freshly cut fruit; below 7 not acceptable; settings: for Color / Flavor / Moistness / Texture: scale to 10; for color/appearance score: scale to 10 (Table 5)
Procedure: The texture, flavor, and moistness of the fruit were evaluated by tasting fruit samples. The color and/or appearance was also evaluated by visual inspection. The color, texture, moistness and flavor were then evaluated according to a scale of either 1 to 10, with 10 being the value assigned to a freshly cut piece of comparative fruit or vegetable. A value of less than 7 is not acceptable.
(§1) Whole Red Delicious apples were rinsed with tap water, sanitized with a sodium hypochlorite solution containing 100 ppm chlorine, then cored and sliced. The apple slices were immersed in water for 0.5 to 2 minutes. Then the apple slices were dipped into produce preservative solution containing 4% ascorbic acid and 1.59% K2CO3 having a pH 5.69 for 1 minute. The slices were removed from the solution and drained for 1-2 minutes, sealed in polyethylene bags, and stored at 2-5° C. For controls, sliced apples either not treated or were dipped into either 4% ascorbic acid with 0.66% NaOH to adjust the pH to 4.45. For comparison, sliced apples were dipped into a solution containing 4% ascorbic acid and 1.22% Na2CO3 and having a pH of 5.58.
(§2) Bartlett pears were preserved with the fresh produce preservative as in Example 1a, with preservative solution that contained 4% ascorbic acid and 1.59% K2-CO3. For comparison, pears were treated with a comparative solution that contained 4% ascorbic acid and 1.22% Na2CO3.
Bartlett pears were preserved with the fresh produce preservative as in Example 1a, except that the preservative solution contained 4% ascorbic acid and 1% Li2CO3.

[2] = tested on: Bramley apples; assay: Water released by sliced Bramley apples
Procedure: (§3) The firmness of the produce in Example 11a were evaluated by bending produce samples. Appearance was evaluated by visual inspection. The moisture was evaluated by measuring the amount of water the produce released.
(§4) Whole Bramley apples free from blemishes or bruises, were rinsed with water, sanitized with a sodium hypochlorite solution having 100 parts per million available chlorine, for two minutes, then peeled, cored, and sliced. The sliced apples were dipped into a fresh produce preservative solution that contained 5.12% strontium ascorbate; the fresh produce preservative solution contained 4.12% ascorbic acid and 1.79% […], for about 30 to 60 seconds. The apples were then drained in a colander for one minute. The apple slices and the colander were placed in 500 micron plastic bags from SunSet Packaging, stored at 4° C. and evaluated several times over a 15 day period. Water which collected in the plastic bag was removed and weighed.
For comparison, similarly prepared apple slices were placed in one of several solutions that contained either: 4.3% ascorbic acid and 1.13% hydrated MgCO3, specifically 4MgCO3.Mg(OH)25H2O or a 5.0% w/w aqueous solution of calcium ascorbate dihydrate, having a pH of 7.2; or a 5.3% w/w solution, of 4.12% ascorbic acid and 1.17% calcium carbonate,; or 6% ascorbic acid having a pH of 2.3; or 48 g ascorbic acid, 48 g citric acid, 16 g CaCl2 and 48 g NaCl in 800 g water, with a pH of 1.2; or 6% w/w citric acid and 6% w/w ascorbic acid; or 4.64% sodium ascorbate having 4.13% ascorbic acid and 1.18% NaCo3. […]

[3] = tested on: Bartlett pears; assay: Hardness of sliced Bartlett pears
Procedure: The firmness or hardness of the fruit is the force required for a probe to penetrate the fruit a given distance into the fruit. The firmness is determined using a Quality and Test System 25 and TA 40 probe from Stevens Company. The TA 40 probe a black acetate, 4.5 mm diameter, 20 mm long rod probe having a flat end. The following settings were employed in the QTS system: the test type is a compression test of one cycle, 0 second hold time, 0 second recovery, 5 g trigger point, 30 mm/min test speed, target unit distance, and a target value of 3 mm. The apple pieces were 1 cm thick.
as §1, §2

[4] = tested on: Bramley apples; assay: Evaluation of sliced Bramley apples: appearance by visual inspection, firmness by bending
Procedure: as §3, §4
For comparison, similarly prepared apple slices were placed in one of several solutions that contained either: 4.3% ascorbic acid and 1.13% hydrated MgCO3, specifically 4MgCO3.Mg(OH)25H2O or a 5.0% w/w aqueous solution of calcium ascorbate dihydrate, having a pH of 7.2; or a 5.3% w/w solution, of 4.12% ascorbic acid and 1.17% calcium carbonate,; or 6% ascorbic acid having a pH of 2.3; or 48 g ascorbic acid, 48 g citric acid, 16 g CaCl2 and 48 g NaCl in 800 g water, with a pH of 1.2; or 6% w/w citric acid and 6% w/w ascorbic acid; or 4.64% sodium ascorbate having 4.13% ascorbic acid and 1.18% NaCo3.
Bramley apples were preserved with the fresh produce preservative as in Example 11a except that the preservative solution contained lithium ascorbate. The lithium ascorbate solution was prepared by adding 7.35 grams of lithium carbonate and 35 grams ascorbic acid to 800 grams water.
For comparison, apple slices were placed in one of several comparative solutions: a 5.0% w/w aqueous solution of calcium ascorbate dihydrate containing 42.5 grams of calcium ascorbate dihydrate and 800 grams water with a pH of 7; a 5.3% w/w solution of calcium ascorbate containing 44.94 grams of mixture of 9.95 grams calcium carbonate and 35 grams ascorbic acid in 800 grams water with a pH of 5.5; a comparative solution, containing 48 g ascorbic acid, 48 g citric acid, 16 g CaCl2, 48 g NaCl and 800 g water with a pH of 1.2; a comparative solution of sodium ascorbate containing 28.45 grams of sodium carbonate 35 grams ascorbic acid, 800 grams water having a pH of 6.8; a comparative solution of calcium ascorbate containing 8.75 grams of calcium carbonate, 35 grams ascorbic acid, and to 800 grams water; a comparative solution of calcium ascorbate containing 9.95 grams of calcium carbonate, 35 grams ascorbic acid, and 765 grams water; a comparative solution of magnesium ascorbate containing 9.66 grams of hydrated magnesium carbonate 4MgCO3.Mg(OH)25H2O, 35 grams ascorbic acid, 765 grams water, having a pH of 6.4; and a comparative solution of zinc ascorbate containing 35 grams ascorbic acid, 12.74 grams zinc carbonate and 765 grams water, with a pH of 5.5. The apple slices were evaluated on day five.

O=C1O[C@H]([C@@H](O)CO)C(O)=C1O [Ascorbic Acid, ascorbic acid]
Color ([1]; 0 hour): 10
Flavor ([1]; 0 hour): 5
Moistness ([1]; 0 hour): 10
Texture ([1]; 0 hour): 10
Color ([1]; 1 week): 8.6
Flavor ([1]; 1 week): 8.8
Moistness ([1]; 1 week): 7
Texture ([1]; 1 week): 3
Color ([1]; 2 weeks): 6.4
Flavor ([1]; 2 weeks): 3.4
Texture ([1]; 2 weeks): 1
Color ([1]; 1 day): 10
Flavor ([1]; 1 day): 9
Moistness ([1]; 1 day): 10
Texture ([1]; 1 day): 9.6
color/appearance score ([1]; 1 day): 10
color/appearance score ([1]; 2 days): 6
Water Released ([2]; 4 hr at 4° C.): 6.78 g
Water Released ([2]; 28 hr at 4° C.): 5.34 g
Water Released ([2]; 52 hr at 4° C.): 4.19 g
Water Released ([2]; 94 hr at 4° C.): 2.94 g
Water Released ([2]; 191 hr at 4° C.): 2.63 g
Hardness ([3]; 0 hour): 2215 g
Hardness ([3]; 1 week): 315 g
Hardness ([3]; 2 weeks): 79 g
Texture ([4]; 28 hr at 4° C.): Firm
Texture ([4]; 52 hr at 4° C.): Firm
Appearance (visual inspection) ([4]; 191 hr at 4° C.): brown
Texture ([4]; 191 hr at 4° C.): soft

From patent US20130309380A1, “METHODS FOR PRESERVING FRESH PRODUCE” (NatureSeal, Inc., priority 2003, published 2013)
